Assay results reported in ChEMBL document CHEMBL2094269, “WEHI/Eskitis Trypanosoma b. brucei screening data”.

Key:
[1] = test system: Trypanosoma brucei brucei; experiment: microbe, parasite or virus in culture; format: functional, organism-based, STIB 795
Description: DNDI: Inhibition of Human African Trypanosomiasis (HAT), STIB 795, in vitro

[2] = DNDI: Cytotoxicity against human MRC-5 lung fibroblast cells.; conditions: IC50

Structure (SMILES)	IC50 ([1]; Trypanosoma brucei, STIB 795) [µM]	IC50 [2] [µM]	IC50 [1] [µM]
CCN1C=CC(=Cc2ccc3cc(C)ccc3[n+]2C)C=C1	0.538	> 20.8	
Cc1c2[nH]c3ccccc3c2c2c([n+]1C)CC(C)(C)CC2	8.67	> 41.7	
CCCN(CCC)C(=O)Cn1ccc(=N)c2ccccc21	3.52	> 41.7	
CN(C)c1cc[n+](Cc2c(Cl)cccc2Cl)cc1	≤ 0.044	> 41.7	
O=C1/C(=C/c2ccncc2)CCC/C1=C\c1ccncc1	0.03	1.94	
CNCCCC1Sc2ccccc2Oc2ccccc21 (stereo unspecified)	4.7	> 41.7	
COCCN1CSC(=S)N(Cc2ccco2)C1	4.84	> 4.17	
Cc1ccccc1C(=O)O/N=C(\N)Cc1cccs1	0.414	> 20.8	
COc1ccc(C(=N)NOC(=O)c2ccco2)cc1	3.69	> 20.8	
CCc1ccc2nc3nc(C)cc(C)c3c(N)c2c1	4.86	> 20.8	
N=C(NOC(=O)CC1CCCCC1)c1cccnc1	5.36	> 41.7	
Cc1ccccc1C(=O)O/N=C(\N)c1ccccc1	0.881	> 20.8	
Cc1cccc(C(=N)NOC(=O)c2ccoc2C)c1	0.338	> 10.4	
COCc1cc(O)nc(Nc2nc3ccc(C)cc3o2)n1	5.16	> 20.8	
Cc1ccc2[nH]c(/C(C#N)=C/c3ccc(O)c(O)c3)nc2c1	1.51	> 20.8	
COc1ccc(C(=N)NOC(=O)c2cccs2)cc1	1.84	> 41.7	
Cc1ccc(O)c(NN=C2C(=O)CC(C)(C)CC2=O)c1	5.09	> 4.17	
Oc1c(Cl)cc(CN2CCOCC2)c2cccnc12	0.956	> 20.8	1.12
NC(=NOC(=O)c1cccc2ccccc12)c1ccccn1	3.58	> 20.8	
CNCc1ccccc1Sc1cccc2ccccc12	4.82	> 41.7	
c1ccc2c(c1)CC1CNCc3cccc(c31)S2 (stereo unspecified)	5.59	> 41.7	
CN(C)c1ccc(/C=C/c2cc[n+](C)c3ccccc23)cc1	0.038	> 2.08	
NCC(O)(c1ccc(Cl)cc1)c1ccc(Cl)cc1	5.33	> 20.8	5.39
c1ccc(NN=C(c2ccccn2)c2ccccn2)nc1	0.468	> 1.04	
COC(=O)N/N=C\c1ccc(-c2ccccc2Cl)o1	1.95	> 41.7	
O=C1c2ccccc2C(=O)N1/N=C/c1ccccc1	0.727	> 41.7	

Structure (SMILES)	IC50 ([1]; Trypanosoma brucei, STIB 795) [µM]	IC50 [2] [µM]	IC50 [1] [µM]
CCn1ccnc1-c1cccc(-c2ccccn2)n1	0.425	> 1.04	
CC[N+]1=C(/C=C/N(C)C)c2cccc3cccc1c23	3.41	> 20.8	
O/N=C1\C=Cc2[nH]c(-c3ccccc3)cc2\C1=N/O	0.254	0.721	
Cc1cccc(C(=O)O/N=C(\N)c2ccncc2)c1	5.42	> 41.7	
Cc1ccc2[nH]c3c(c2c1)CCC/C3=N\N=C(N)N	8.57	> 20.8	
CC(=O)C(C(C)=O)C1=CC(=O)C(=O)c2ccccc21	7.06	> 20.8	
COc1ccc(C2=C(C)C(=O)C(C)=C(C)C2=O)cc1	5.55	> 20.8	
S=c1c(Cl)c(Cl)cnn1-c1ccccc1	6.17	> 20.8	
CCN(CC)c1ccc(/C=N/n2cnnc2)c(O)c1	1.92	> 41.7	
CS(=O)(=O)/C=C(\c1ccccc1)c1ccncc1	0.641	> 20.8	
CCc1cc2c(cc1C(C)N)C(C)(C)CCC2(C)C (stereo unspecified)	5	> 20.8	
CC(C)(C)C(N)CCc1ccc(Cl)cc1Cl (stereo unspecified)	5.49	> 41.7	
COC(=O)c1ccccc1N/N=C1\C(=N)ON=C1N	0.41	> 41.7	
Cc1ccc([S@+]([O-])/C(F)=C\c2ccccn2)cc1	0.903	5.57	
Cc1ccc2c(c1)C(=O)C(CN1CCOCC1)CO2 (stereo unspecified)	2.17	> 20.8	
Oc1c(Cl)cc(CN2CCCC2)c2cccnc12	4.32	> 4.17	
O=c1nc2oc3ccc4ccccc4c3cc-2c(=O)[nH]1	5.06	> 20.8	
CC1(C)CCC[C@]2(C)C=C(C3OCCO3)C(=O)C[C@@H]12	5.21	> 41.7	
O=C1c2ccccc2C(=O)c2c1ccc1c(=O)o[nH]c21	4.64	> 41.7	
Cc1cccc(NCc2ccc(O)c3ncccc23)n1	4.89	> 20.8	
CN(C)c1ccc(/C=C\C=C\c2ccc[n+](C)c2)cc1	0.354	> 20.8	
Cc1cc(C)nc(Nc2nc(N)c3ccccc3n2)n1	3.79	6.09	
CCN(Cc1ccccc1)S(=O)(=O)c1ncn[nH]1	3.38	> 41.7	
CCCCCc1ccc(-c2ccc(C(=N)N)cc2)cc1	5.73	15.5	
COc1ccc(Nc2nc3ccccc3c(=O)o2)cc1	0.435	> 20.8	
Cc1ccc(C23CC4CC(CC(CN)(C4)C2)C3)cc1C	0.91	> 20.8	

Structure (SMILES)	IC50 ([1]; Trypanosoma brucei, STIB 795) [µM]	IC50 [2] [µM]	IC50 [1] [µM]
C/C(Cl)=C\CN1C(=O)C(=O)c2cc(Cl)ccc21	4.87	> 41.7	
O=C(Cc1cc(O)[nH]n1)N/N=C/C=C/c1ccccc1	5.31	> 41.7	
CCC(C)NC(=O)c1nc(-c2ccccc2)cnc1N (stereo unspecified)	0.426	> 41.7	
CC1CS/C(=N/c2ccc(Br)cc2)N1 (stereo unspecified)	6.65	> 41.7	
C/C(=N\NC(=O)Cc1ccc(F)cc1)c1ccccn1	5.17	> 4.17	
O=C1CC(n2nnnc2-c2ccccc2)C2COC1O2 (stereo unspecified)	2.18	> 20.8	
CN(C)c1ccc(C2=Nc3cccc4cccc2c34)cc1	0.434	> 41.7	
COc1ccc(CC(C)N)c(Sc2ccccc2)c1 (stereo unspecified)	5.42	> 41.7	
c1coc(CNc2c3ccccc3nc3ccccc23)c1	2.73	> 4.17	
C[N+](CC#CC1CC1)(C1CCCCC1)C1CCCCC1	8.85	> 41.7	
Oc1ccc(Cn2cnc3ccccc32)c2cccnc12	1.55	> 4.17	
Cc1ccc(OCCCCCN2CCNCC2)c(C)c1	5.38	> 41.7	
CN(C)CCCNCCCc1ccc(C(C)(C)C)cc1	0.079	8.02	
COC(=O)c1[nH]cc2c3cccnc3c3ncccc3c12	0.064	0.59	
Cc1ccc(/N=N/c2ccc(O)c3ncccc23)cc1C	4.92	> 20.8	
CC[n+]1ccccc1/C=C1\C=Cc2cc(C)ccc2N1C	0.911	> 20.8	
N=C(N)n1nc(-c2ccccc2)cc1-c1ccccc1O	5.07	> 20.8	
Cc1nn2c3c(nnc2c1-c1ccccc1)C(=O)CCC3	0.697	18.1	
O=C(Nc1cccc(Cl)c1)O/N=C1\CC2CCC1C2 (stereo unspecified)	0.857	> 20.8	
CN(C)CCn1c2ccccc2c2cnc(N)c(C#N)c21	3.62	> 4.17	
Cc1cc(N2CCN(C)CC2)c2[nH]c3ccccc3c2c1	0.748	7.26	
Cc1nnc(N/N=C/c2cc(Cl)ccc2O)nc1O	3.65	4.74	
O=C(N/N=C/c1c(O)ccc2ccccc12)c1cc[nH]n1	2.68	> 20.8	
Cc1ccc(/C(=C\CCNCCN)c2ccccc2)cc1	0.269	> 20.8	
O=C(N/N=C\c1cc(Cl)ccc1O)c1cccs1	10.9	> 41.7	
N/C(=N\OC(=O)c1cccs1)c1ccccc1Cl	0.766	> 20.8	

Structure (SMILES)	IC50 ([1]; Trypanosoma brucei, STIB 795) [µM]	IC50 [2] [µM]	IC50 [1] [µM]
CC1(C)OC(C)(C)/C(=C/c2ccc3cccnc3c2)C1=O	5.21	> 20.8	
Cn1ccc(/C=C2/CCC/C(=C\c3ccn(C)n3)C2=O)n1	5.61	> 20.8	
COc1ccc(NCC2COc3ccccc3C2=O)cc1 (stereo unspecified)	4.91	> 41.7	
COC12C=CC(CC1)C1C(=O)c3cccc(O)c3C(=O)C12 (stereo unspecified)	2.48	> 20.8	
CN1C=C/C(=C\C=C2/C=Nc3ccccc32)c2ccccc21	0.311	> 4.17	
CC(C)COc1ccc2c(c1)c1c3n2CNCC3CCC1 (stereo unspecified)	2.88	> 20.8	
c1ccc(Nc2nc(-c3ccccc3)c3ccccn23)cc1	5.38	> 41.7	
CC(C)=CC1C(C(=O)O/N=C(\N)c2ccccc2)C1(C)C (stereo unspecified)	1.16	> 41.7	
CC(C)Cc1ccc(C(C)C(=N)NC2CCCCC2)cc1 (stereo unspecified)	5.45	> 20.8	
C=CC[n+]1ccc(/C=C/c2ccccc2O)c2ccccc21	5.28	> 41.7	
O=C(CNc1ccc(Cl)cc1)N/N=C/c1cccnc1	1.75	> 4.17	
C/C(=N\NC(=O)c1cccc2ccccc12)c1ccccn1	2.34	> 4.17	
COc1ccc(CCON2C(N)=NC(N)=NC2(C)C)cc1	≤ 3.11	> 4.17	
O=C(N/N=C/c1cc(Cl)ccc1O)c1ccc(F)cc1	≤ 10.4	> 20.8	
CN(C)CCCOC1=Cc2ccccc2Cc2ccccc21	6.6	> 41.7	
Cc1cccc(NC(=O)Cn2cc(CO)c3ccccc32)c1	5.39	> 4.17	
C1=C(N2CCNCC2)c2ccccc2Sc2ccccc21	3.16	> 20.8	
CCN(CC)c1ccc(C2N(C)c3ccccc3N2C)cc1	2.49	> 41.7	
C[n+]1ccccc1C=C1C=CN(c2ccc(Cl)cc2)C=C1	0.028	> 4.17	
CCCCc1c(C)[nH]n(-c2nc3ccccc3[nH]2)c1=O	0.895	> 1.04	
CN(C)CCCNc1c2c(nc3ccccc13)CCC2	1.82	5.76	
N#Cc1c(N)nc2[nH]nc(N)c2c1-c1ccccc1	3.04	> 20.8	
CCN1/C(=C/c2cccc[n+]2C)C=Cc2cc(C)ccc21	0.909	> 20.8	
NC1c2ccccc2CC1Cc1ccc(Cl)cc1Cl (stereo unspecified)	5.23	> 20.8	
